Laboratory results reported in ChEMBL document CHEMBL3885861, “Open TG-GATES”.
*1 amine or outer side, *2 acyl side, *3 side chain or, on linkers, in order; H or OH if unused. Where a SMILES comes first, the peptide text is derived from it. Bridges are numbered along the chain shown (N, C = ends). [ ]: non-standard residue; d: D form. Trp(2-yl) = O=C([C@H](Cc1c([*:3])[nH]c2ccccc12)N[*:1])[*:2]; Leu(4R-OH,5-OH) = C[C@](O)(CO)C[C@H](N)C(=O)O; cisHyp = O=C(O)[C@@H]1C[C@H](O)CN1

Organism: Rattus norvegicus
Test: Open TG-GATES - Regimen: Single
Format: toxicity, organism-based, Sprague-Dawley
Parameters: regimen Single, gender Male, age 6 weeks
Conditions: in vivo, ip, 1 mg/kg, route intraperitoneal injection, dose level High; for APTT / Bas / Eos / Fbg / Hb / Ht / Lym / MCH / MCHC / MCV / Mono / Neu / PT / Plat / RBC / Ret / WBC: tissue Blood; for KIDNEY_L / KIDNEY_R / KIDNEY_TOTAL: tissue Kidney; for LIVER: tissue Liver; for A/G / ALP / ALT / AST / BUN / CRE / Ca / Cl / DBIL / GLC / IP / K / LDH / Na / PL / RALB / TBIL / TC / TG / TP / gamma-GTP: tissue Plasma

C[C@@H]1NC(=O)[C@H](C[C@@](C)(O)CO)NC(=O)[C@@H]2Cc3c([nH]c4ccccc34)SC[C@H](NC(=O)[C@@H]([C@H](C)O)NC1=O)C(=O)N1C[C@@H](O)C[C@H]1C(=O)N[C@@H](C)C(=O)N2 [PHALLOIDIN] (cyclo(A[dT]C[cisHyp]A[Trp(2-yl)][Leu(4R-OH,5-OH)]); thioether 3-6)
TERMINAL_BW (3 h): 211.9 g
APTT (3 h): 21.8 s
Bas (3 h): 0%
Eos (3 h): 0%
Fbg (3 h): 259.6 mg/dL
Hb (3 h): 12.4 g/dL
Ht (3 h): 39.5%
Lym (3 h): 73.8%
MCH (3 h): 20 pg
MCHC (3 h): 31.5%
MCV (3 h): 63.3 fL
Mono (3 h): 2.6%
Neu (3 h): 22.6%
PT (3 h): 15.9 s
Plat (3 h): 108.1 x10_4/uL
RBC (3 h): 623.8 x10_4/ul
Ret (3 h): 7.7%
WBC (3 h): 66 x10_2/uL
KIDNEY_L (3 h): 1 g
KIDNEY_R (3 h): 1 g
KIDNEY_TOTAL (3 h): 2 g
LIVER (3 h): 9.1 g
A/G (3 h): 1.2
ALP (3 h): 1810.8 IU/L
ALT (3 h): 49.6 IU/L
AST (3 h): 110 IU/L
BUN (3 h): 12 mg/dL
CRE (3 h): 0.2 mg/dL
Ca (3 h): 10.4 mg/dL
Cl (3 h): 107.8 meq/L
DBIL (3 h): 0.006 mg/dL
GLC (3 h): 184.8 mg/dL
IP (3 h): 8.6 mg/dL
K (3 h): 4 meq/L
LDH (3 h): 235.2 IU/L
Na (3 h): 139.6 meq/L
PL (3 h): 125.8 mg/dL
RALB (3 h): 2.7 g/dL
TBIL (3 h): 0.012 mg/dL
TC (3 h): 78.6 mg/dL
TG (3 h): 36.2 mg/dL
TP (3 h): 4.9 g/dL
gamma-GTP (3 h): 1.6 IU/L
TERMINAL_BW (6 h): 210 g
APTT (6 h): 22.3 s
Bas (6 h): 0%
Eos (6 h): 0.2%
Fbg (6 h): 286.6 mg/dL
Hb (6 h): 12.5 g/dL
Ht (6 h): 39.2%
Lym (6 h): 79.6%
MCH (6 h): 20 pg
MCHC (6 h): 31.9%
MCV (6 h): 62.6 fL
Mono (6 h): 2%
Neu (6 h): 17.4%
PT (6 h): 15.9 s
Plat (6 h): 111.9 x10_4/uL
RBC (6 h): 626 x10_4/ul
Ret (6 h): 6.8%
WBC (6 h): 90.8 x10_2/uL
KIDNEY_L (6 h): 0.9 g
KIDNEY_R (6 h): 1 g
KIDNEY_TOTAL (6 h): 1.9 g
LIVER (6 h): 9.2 g
A/G (6 h): 1.3
ALP (6 h): 1613.8 IU/L
ALT (6 h): 56.6 IU/L
AST (6 h): 114.6 IU/L
BUN (6 h): 14.8 mg/dL
CRE (6 h): 0.2 mg/dL
Ca (6 h): 10.3 mg/dL
Cl (6 h): 106.2 meq/L
DBIL (6 h): 0 mg/dL
GLC (6 h): 186.4 mg/dL
IP (6 h): 7.6 mg/dL
K (6 h): 3.9 meq/L
LDH (6 h): 232 IU/L
Na (6 h): 142 meq/L
PL (6 h): 141 mg/dL
RALB (6 h): 2.9 g/dL
TBIL (6 h): 0.004 mg/dL
TC (6 h): 90.4 mg/dL
TG (6 h): 65.8 mg/dL
TP (6 h): 5.1 g/dL
gamma-GTP (6 h): 1.8 IU/L
TERMINAL_BW (9 h): 208.3 g
APTT (9 h): 20.7 s
Bas (9 h): 0%
Eos (9 h): 0.4%
Fbg (9 h): 291.6 mg/dL
Hb (9 h): 12.3 g/dL
Ht (9 h): 39.3%
Lym (9 h): 80.6%
MCH (9 h): 20.2 pg
MCHC (9 h): 31.4%
MCV (9 h): 64.4 fL
Mono (9 h): 2.4%
Neu (9 h): 15.4%
PT (9 h): 15.3 s
Plat (9 h): 114.2 x10_4/uL
RBC (9 h): 610.4 x10_4/ul
Ret (9 h): 7.8%
WBC (9 h): 75 x10_2/uL
KIDNEY_L (9 h): 0.9 g
KIDNEY_R (9 h): 0.9 g
KIDNEY_TOTAL (9 h): 1.9 g
LIVER (9 h): 9.2 g
A/G (9 h): 1.3
ALP (9 h): 1636.4 IU/L
ALT (9 h): 56.8 IU/L
AST (9 h): 109.6 IU/L
BUN (9 h): 12.8 mg/dL
CRE (9 h): 0.2 mg/dL
Ca (9 h): 10.4 mg/dL
Cl (9 h): 106.4 meq/L
DBIL (9 h): 0 mg/dL
GLC (9 h): 180.4 mg/dL
IP (9 h): 7.9 mg/dL
K (9 h): 4.3 meq/L
LDH (9 h): 158.2 IU/L
Na (9 h): 140.4 meq/L
PL (9 h): 144 mg/dL
RALB (9 h): 2.9 g/dL
TBIL (9 h): 0.008 mg/dL
TC (9 h): 97.4 mg/dL
TG (9 h): 63.2 mg/dL
TP (9 h): 5.1 g/dL
gamma-GTP (9 h): 1.6 IU/L
TERMINAL_BW (24 h): 220.3 g
APTT (24 h): 21.7 s
Bas (24 h): 0%
Eos (24 h): 0.8%
Fbg (24 h): 304.4 mg/dL
Hb (24 h): 12.5 g/dL
Ht (24 h): 39.6%
Lym (24 h): 81.2%
MCH (24 h): 20.3 pg
MCHC (24 h): 31.7%
MCV (24 h): 64 fL
Mono (24 h): 1.8%
Neu (24 h): 15.6%
PT (24 h): 15.4 s
Plat (24 h): 119.9 x10_4/uL
RBC (24 h): 619.8 x10_4/ul
Ret (24 h): 7.6%
WBC (24 h): 71.5 x10_2/uL
KIDNEY_L (24 h): 1 g
KIDNEY_R (24 h): 1 g
KIDNEY_TOTAL (24 h): 2.1 g
LIVER (24 h): 10.2 g
A/G (24 h): 1.2
ALP (24 h): 1849.4 IU/L
ALT (24 h): 45 IU/L
AST (24 h): 81.6 IU/L
BUN (24 h): 15.2 mg/dL
CRE (24 h): 0.1 mg/dL
Ca (24 h): 10.7 mg/dL
Cl (24 h): 106.8 meq/L
DBIL (24 h): 0.002 mg/dL
GLC (24 h): 189.2 mg/dL
IP (24 h): 8.2 mg/dL
K (24 h): 4.4 meq/L
LDH (24 h): 191 IU/L
Na (24 h): 141.6 meq/L
PL (24 h): 147.2 mg/dL
RALB (24 h): 2.8 g/dL
TBIL (24 h): 0.002 mg/dL
TC (24 h): 95.8 mg/dL
TG (24 h): 74 mg/dL
TP (24 h): 5.3 g/dL
gamma-GTP (24 h): 1.6 IU/L
